Common to all, as to format: cell-based, human
In series [1] the test system is HeLa cells. The series can be described thus: Peptides toxicity assay (MTT assay), HeLa viability and proliferation. To be noted: for cytotoxicity (result in words): MTT staining, 24 h incubation with HeLa cells, concentrations up to 1000 μM (FIG. 3A, 3B). The procedure:
(§1) HeLa viability and proliferation in the presence of peptides was tested using a 3-(4,5-dimethylthiazol-2-yl)-2,5-diphenyltetrazolium bromide (MTT) assay.
(§2) (cf. “MTT-cell proliferation assay” Cell Biology: A Laboratory Handbook, Academic Press, 1998, Second Ed. vol.1; Y. Liu et al., “Mechanism of cellular 3-(4,5-dimethylthiazol-2-yl)-2,5-diphenyltetrazolium bromide (MTT) reduction”, J. Neurochem. 1997 vol. 69 pp. 581-93).
(§3) For each assay 7×10^3 cells/cm^2 were seeded on a 96-well plate (Nange Nunc) (100 μl/hole) and cultured for 24 h. In order to avoid saturation in cell growth after 24 h of peptide incubation, 7×10^3 cells/cm^2 were used in the proliferation measurement (instead of 21.4×10^3 cells/cm^2 seeded in previous experiments). After complete adhesion to the plate, the culture medium was discarded. Peptides were added at growing concentrations of 50, 100, 500, and 1000 μM. The cells were incubated for 3 h or 24 h at 37° C. under 5% CO2 atmosphere. MTT was added 2 h before the final incubation time, i.e., after 1 h for the 3 h incubation time and after 22 h for the 24 h incubation time at a final concentration per hole of 0.5 mg/ml. The cells with peptide and MTT were incubated for a further 2 h and then the medium was discarded by aspiration. Isopropanol was added to dissolve formazan, a dark blue coloured crystal observed in the wells. Absorbance was measured at λ=570 nm, 30 min after the addition of isopropanol. The cell viability was expressed as a percent ratio of cells treated with peptide against cells untreated used as control.
(In general: Formazan colour is commonly taken as a measure of viable cells.)

Test in series [2]: as above
The note with it: human, HeLa cells, MTT, 24 h incubation, read-out: cell viability; for viability at 24 h, 50 µM: peptide at 50 μM (FIG. 3B); for viability at 24 h, 500 µM: peptide at 500 μM (FIG. 3B). On the procedure: as §1, §2, §3

Series [3] deals with HeLa cells. The series can be described thus: Microplate fluorimeter reader assay (cellular uptake of carboxyfluoresceinated peptides). On the procedure:
Comparative properties of labelled peptides for translocation through the cell membrane were checked with HeLa human cell line. First, the extent of the uptake of the monomers, dimers and trimers at 50 μM concentration in HeLa cells was quantified using a fluorescence microplate reader assay. A dose-response analysis was then undertaken, incubating HeLa cells with the peptides at different concentrations. The cellular uptake of the new peptides was also studied by confocal laser scanning microscopy (CLSM).
HeLa cells were obtained from ATCC. They were maintained in DMEM ([…]) culture medium (Biological Industries) containing 10% Fetal Calf Serum (FCS), 2 mM glutamine, 50 u/ml penicillin and […] streptomycin. For confocal microscopy experiments, exponentially growing HeLa cells were detached from the culture flasks using a trypsin-0.25% EDTA solution and the cell suspension was seeded at a concentration of 21.4×10^3 cells/cm^2 onto glass coverslips or onto 8-well Lab-Teck™ chambered coverglass or on 96-well plate (Nalge Nunc International). Experiments were carried out 24 h later, when the confluence was about 60-70%. The carboxyfluoresceinated compounds were dissolved in PBS and sterilized with 0.22 μm filters (Millex-GV, PVDF, Durapore, Millipore). The peptides and 5(6)-carboxyfluorescein stock solutions were diluted in the cell culture medium. Non-adherent cells were washed away and attached cells were incubated at 37° C. in CO2 atmosphere in DMEM medium with a known concentration of peptides for 3 h.
For each assay, 21.4×10^3 cells/cm^2 were seeded and cultured for 24 h. After complete adhesion to the plate, the culture medium was changed. […] The measurement of fluorescence emitted was carried out after 30 min incubation with lysis buffer in a FL600 Microplate Fluorescence Reader (Bio-Tek). Fluorescence was measured at a λexcitation=485/20 nm and a λemission=530/25 nm. A triplicate of each peptide or carboxyfluorescein concentration was performed and the fluorescence emitted for the blanks (cells with culture medium and without peptides) was subtracted. […]

Ends that are not written are not given here.

For `CC[C@H](C)[C@H](NC(=O)[C@H](CCCCN)NC(=O)[C@@H](NC(=O)[C@H](CCC(N)=O)NC(=O)[C@@H](N)CCCNC(=N)N)[C@@H](C)CC)C(=O)N[C@@H](Cc1c[nH]c2ccccc12)C(=O)N[C@@H](Cc1ccccc1)C(=O)N[C@@H](CCC(N)=O)C(=O)N[C@@H](CC(N)=O)C(=O)N[C@@H](CCCNC(=N)N)C(=O)N[C@@H](CCCNC(=N)N)C(=O)N[C@@H](CCSC)C(=O)N[C@@H](CCCCN)C(=O)N[C@@H](Cc1c[nH]c2ccccc12)C(=O)N[C@@H](CCCCN)C(=O)N[C@@H](CCCCN)C(N)=O` [Antp, (Arg-Gln-Ile-Lys-Ile-Trp-Phe-Gln-Asn-Arg-Arg-Met-Lys-Trp-Lys-Lys)-NH2], in the series with HeLa cells [1], the “concentration at which cytotoxic” value was 50 µM.
By viability is commonly meant the share of living cells, or the viability signal relative to a control. For `CC[C@H](C)[C@H](NC(=O)[C@H](CCCCN)NC(=O)[C@@H](NC(=O)[C@H](CCC(N)=O)NC(=O)[C@H](CCCNC(=N)N)NC(=O)c1ccc2c(c1)C(=O)OC21c2ccc(O)cc2Oc2cc(O)ccc21)[C@@H](C)CC)C(=O)N[C@@H](Cc1c[nH]c2ccccc12)C(=O)N[C@@H](Cc1ccccc1)C(=O)N[C@@H](CCC(N)=O)C(=O)N[C@@H](CC(N)=O)C(=O)N[C@@H](CCCNC(=N)N)C(=O)N[C@@H](CCCNC(=N)N)C(=O)N[C@@H](CCSC)C(=O)N[C@@H](CCCCN)C(=O)N[C@@H](Cc1c[nH]c2ccccc12)C(=O)N[C@@H](CCCCN)C(=O)N[C@@H](CCCCN)C(N)=O` [CF-Antp-NH2], in the series with HeLa cells [1], the “cytotoxicity (result in words)” value is on record as “cytotoxic at relatively low concentrations”. Further, in series [2], the viability at 24 h, 50 µM came out at 75% and the viability at 24 h, 500 µM stood at 11%.
`N=C(N)NCCC[C@H](NC(=O)[C@H](CCCNC(=N)N)NC(=O)[C@H](CCCNC(=N)N)NC(=O)[C@H](CCC(N)=O)NC(=O)[C@H](CCCNC(=N)N)NC(=O)[C@H](CCCNC(=N)N)NC(=O)[C@H](CCCCN)NC(=O)[C@H](CCCCN)NC(=O)[C@H](CCCNC(=N)N)NC(=O)c1ccc2c(c1)C(=O)OC21c2ccc(O)cc2Oc2cc(O)ccc21)C(N)=O` [CF-Tat-NH2]: in the series with HeLa cells [1], the “cytotoxicity (result in words)” value is “cytotoxic at relatively low concentrations”. In series [2], the viability at 24 h, 50 µM is 64% and the viability at 24 h, 500 µM was determined as 40%.
Regarding “(Arg-Lys-Lys-Arg-Arg-Gln-Arg-Arg-Arg)-NH2 (RKKRRQRRR-NH2) [Tat]”, the “concentration at which cytotoxic” value in the series on HeLa cells [1] stood at 50 µM.
On to CF-(Val-Arg-Leu-Pro-Pro-Pro)3, for which, in the series with HeLa cells [3] (HeLa cells incubated 3 h at 50 μM, X=Arg and His, n=1-3 (FIG. 2A)), the “fluorescence emitted (uptake) compared with the other CF-(Val-X-Leu-Pro-Pro-Pro)n peptides” value is reported as “higher fluorescence intensity”. Moreover, the “degree of internalization measured against CF-Antp-NH2” value with HeLa cells [3] (HeLa cells, relative to CF-Antp-NH2) is 20 times lower. Besides, in the series with HeLa cells [3] (HeLa cells, relative to CF-Tat-NH2), the “degree of internalization measured against CF-Tat-NH2” value was 15 times lower.

(Values after patent US20090036363A1, “Peptides as cell penetrating carriers” (priority 2004, published 2009).)
